Test results reported in publication PMC4459817, “Vasculotide reduces endothelial permeability and tumor cell extravasation in the absence of binding to or agonistic activation of Tie2” (EMBO Molecular Medicine, 2015).

B1: recombinant human Ang1 (rhAng1) (ligand, UniProt Q15389 16-498, looked up)
chain: HIGCSNQRRSPENSGRRYNRIQHGQCAYTFILPEHDGNCRESTTDQYNTNALQRDAPHVEPDFSSQKLQHLEHVMENYTQWLQKLENYIVENMKSEMAQIQQNAVQNHTATMLEIGTSLLSQTAEQTRKLTDVETQVLNQTSRLEIQLLENSLSTYKLEKQLLQQTNEILKIHEKNSLLEHKILEMEGKHKEELDTLKEEKENLQGLVTRQTYIIQELEKQLNRATTNNSVLQKQQLELMDTVHNLVNLCTKEGVLLKGGKREEEKPFRDCADVYQAGFNKSGIYTIYINNMPEPKKVFCNMDVNGGGWTVIQHREDGSLDFQRGWKEYKMGFGNPSGEYWLGNEFIFAITSQRQYMLRIELMDWEGNRAYSQYDRFHIGNEKQNYRLYLKGHTGTAGKQSSLILHGADFSTKDADNDNCMCKCALMLTGGWWFDACGPSNLNGMFYTAGQNHGKLNGIKWHYFKGPSYSLRSTTMMIRPLDF
notes: angiopoietin-1, human, recombinant; also called angiopoietin-1; source: bought: R&D Systems (named for the Boyden chamber experiments)

What was measured:
[1] = tested on: CMPTX-labeled tumor cells across HMVEC-LBl; experiment: modified Boyden chamber, trans-endothelial tumor cell migration, HMVEC-LBl; format: cell-based, human; conditions: 20 h, Fig1B, C
Method: (§1) ECs were first treated with Vasculotide (VT), PBS (vehicle/negative control), Ang1 (positive control), PEG-Cys (polyethylene glycol backbone), T7c (non-PEGylated CHHHRHSF peptides), or VT in the presence of 100-fold molar excess of T7c. The concentrations used, 10–20 ng/mL VT and 200–400 ng/mL Ang1, are estimated molar equivalents (0.71–1.43 nM). Thirty minutes later, ECs were stimulated with thrombin, 0.1% BSA (vehicle/negative control), or EDTA (positive control). Another 30mins later, the amount of FITC-dextran diffusion into the lower chambers (A, D) provides a measure of endothelial permeability. CMTPX-labeled tumor cells (TCs) were then dispensed into inserts, and the amount of TC fluorescence emitting from the underside of insert membranes after 20 h (B–C) or 28 h (E) reflects the efficiency of trans-endothelial TC migration. […] Three experiments (twice with HMVEC-LBl and once with HMVEC-DBl) were run with n = 3–5 inserts (independent biological replicates) per group and analyzed by two-sampled unpaired t-tests. […]
(§2) Endothelial cells (ECs) were grown on cell culture inserts with uncoated 8-μm-pore PET filter membranes to 100% confluency. […] After 30 min of thrombin stimulation or 4–6 h of TC-CM stimulation, FITC fluorescence (ex/em = 490/520 nm) was measured from a 50 μl sample of the lower chamber media. […]

[2] = tested on: human microvascular ECs of lung blood vessel origin (HMVEC-LBl); experiment: modified Boyden chamber, thrombin-stimulated FITC-dextran permeability, HMVEC-LBl; format: cell-based; conditions: VT 10–20 ng/mL, Ang1 200–400 ng/mL, 30 min pretreatment, FITC fluorescence ex/em 490/520 nm, n = 3–5 inserts, unpaired t-test, Fig1A
Method: as §1, §2

| Molecule | thrombin-stimulated migration of CMTPX-labeled TCs [1] | transendothelial permeability of FITC-dextran [2] |
| --- | --- | --- |
| CHHHRHSF [Vasculotide, 4-armed maleimide-functionalized polyethylene glycol (PEG) backbone to link together four cysteine-capped T7 peptides, that is, CHHHRHSF] | trends of reducing thrombin-stimulated migration | counteract thrombin-stimulated increases in transendothelial permeability of FITC-dextran (P < 0.05 |
| B1 | counteract thrombin induction of trans-endothelium macromolecular permeability and tumor cell migration | counteract thrombin induction of trans-endothelium macromolecular permeability |
